Laboratory results as given in patent US11446352B2, “Compositions and methods for inhibiting tumor-induced immune suppression” (priority 2017, dated 2022).

Assays:
[1] = system: Hsp90 chaperoning machine; test: progesterone receptor (PR) refolding assay using reticulocyte lysate (RRL); type: biochemical; conditions: 10 μM EnnA
Source text: (§1) The first bar indicates 100% folding activity of RRL without inhibitor. PR22 indicates the antibody without PR but with RRL and EnnA. PR represents the antibody (PR22) with PR but without RRL. All other samples have PR22, PR, and RRL without (first bar) or with increased concentration of EnnA. FIGS. 1C-1E are line graphs of cell survival versus EnnA concentration (μM) in breast cancer cell lines Hs578T (FIG. 1C), […] (FIG. 1D) and MDA-MB231 (FIG. 1E) upon treatment with EnnA for 48 and 72 h. […] PR alone (PR), antibody (PR22)+RRL, PR+RRL without inhibitor (RRL), PR+RRL with 1 μM 17-AAG (17AAG) PR+RRL with 10 μM BEAU or EnnA. FIGS. 1G-1I are autoradiographs of Western blots of cytosols from various cell lines treated with 17-AAG (1 μM) or EnnA (3 μM) with antibodies against the specified proteins. FIG. 1J is an autoradiograph showing EnnA causes autophagy in Hs578T and MDA-MB453 cell lines. FIGS. 1K-1N are electron microscopy micrographs showing autophagosomes and reduced mitochondria content in Hs578T cells treated with DMSO or EnnA. FIGS. 1O-1P are fluorescence micrographs showing EnnA causing reduced mitochondria content in Hs578T cells. FIGS. 1Q-1BB are fluorescence micrographs showing mitophagy in Hsp578T cells treated with EnnA as indicated by colocalization of the mitochondria marker Cox4 and the autophagy marker LC3BII.
A cell-free high-throughput screen (HTS) platform based on the progesterone receptor (PR) using reticulocyte lysate (RRL) as a source of molecular chaperones was used to screen 175 natural products (Patwardhan C A, et al., J Biomol Screen (2014)). This assay captures the physiological steps of PR refolding by the Hsp90 chaperoning machine and measures the recovery of its hormone-binding activities after mild heat treatment. It has the ability to identify inhibitors as well as activators of the core components of the Hsp90 chaperoning machine (i.e., Hsp90, Hsp70, Hsp40, Hsp90/Hsp70 organizing protein (HOP), and p23), including compounds that target chaperone complexes as well as individual proteins.

[2] = system: HER2+ MAD-MB-453 cell line; test: cell survival of breast cancer cell line upon treatment with EnnA; type: cell-based, human; conditions: MAD-MB-453, 48 and 72 h
Source text: as §1

AT3 cells = test: Western blot of control and EnnA-treated cells; type: cell-based, murine; conditions: AT3, 0.5 μM EnnA
Description: (§2) FIG. 3A-3B are autoradiographs of a Western blot showing expression of the indicated proteins in control (left lane) and 0.5 μM EnnA-treated (right lane) E0771 (FIG. 3A) and AT3 (FIG. 3B) cells. FIG. 3C is a graph showing FACS analysis of PD-L1 level in AT3 cells. FIGS. 3D-3K are graphs showing qPCR analysis of the mRNA level of cytokines TNFa (FIG. 3D), IL-6 (FIG. 3E), TGFb1 (FIG. 3F) and IL-10 (FIG. 3G), the chemokines S100a9 (FIG. 3J) and CCL3 (FIG. 3K), as well as PDL1 (FIG. 3H) and IDO (FIG. 3I). FIGS. 3L-3Q are micrographs of HEK293 cells transiently transfected with GFP-IDO fusion protein expressing or GFP alone plasmids for 24 h. Cells were then treated with 5 μM EnnA for 6 h and analyzed for green fluorescence and bright light. FIG. 3R is a line graph of μg/ml of tryptophan and its IDO-mediated product kynurenine using the previously reported HPLC-based assay.

E0771 cells = test: Western blot of control and EnnA-treated cells; type: cell-based, murine
Description: as §2

[3] = system: E0771 tumor microenvironment; test: analysis of tumors and splenocytes from EnnA-treated mice (Western blot, FACS, immunohistochemistry, immunofluorescence); type: in vivo
Description: FIG. 5A is a line graph of tumor volume (mm^3) versus time (days) of mice injected with 100,000 E0771. Ten days after surgery, mice were divided into two groups: the EnnA group was injected with 10 mg/kg of EnnA. every other day, and the control group received a mixture of 15% DMSO and 20% cremophor in PBS. FIG. 5B is a line graph of body weight versus time (days) of mice treated with DMSO or EnnA. FIG. 5C is autoradiograph of a Western blot of four animals from each group using the indicated specific antibodies. FIG. 5D is a bar graph of % of gated cells treated with DMSO or EnnA showing FACS analysis of tumor cells for PDL1. FIG. 5E-5J is a panel of micrographs showing immunohistochemistry analysis of H&E staining of tumors from control and EnnA mice for analysis of necrotic tissue. FIGS. 5K-5P is a panel of micrographs showing immunohistochemistry analysis of tumors from control and EnnA mice for analysis of immune cells infiltration using anti-CD45 antibody. FIG. 5Q is a bar graph of % of gated cells treated with DMSO showing that EnnA treatment reduces CD4+/Foxp3+ Tregs. FIG. 5R is a bar graph of % of gated cells treated with DMSO or EnnA showing that EnnA treatment reduces CD11b+Gr-1+ MDSCs. FIG. 5S is a bar graph of % of gated cells treated with DMSO or EnnA showing that EnnA treatment reduces the number of CD8+/PD-1+ lymphocytes. FIG. 5T is a bar graph of % of cells treated with DMSO or EnnA showing that EnnA treatment increase the number of GR-1-CD11c+CD103+ lymphocytes.
FIGS. 8A-8L show immunofluorescent staining of E0771 tumors using anti-CD45 and anti-CD8β antibodies. FIGS. 8M-8T show immunofluorescent staining of E0771 tumors using anti-CD45 and anti-CTLA-4 antibodies. […] FIG. 8V is a bar graph showing the results of FACS analysis of CD8 positive cells in E0771 tumor-bearing mice treated with DMSO, EnnA, αCD8, or EnnA+αCD8. The X axis represents treatment group and the Y axis represents percent CD8 positive cells. FIG. 8W is a model for EnnA inhibition of Hsp 90 machinery and its impacts on the immune suppressive mechanism through PD-1 and IDO.
100,000 E0771 cells were surgically implanted in mammary fat pad of 20 mice. Ten days after surgery, mice were divided into two groups: the EnnA group was injected with 10 mg/kg of EnnA every other day, and the control group received a mixture of 15% DMSO and 20% cremophor in PBS.

CC[C@H](C)[C@H]1C(=O)O[C@H](C(C)C)C(=O)N(C)[C@@H]([C@@H](C)CC)C(=O)O[C@H](C(C)C)C(=O)N(C)[C@@H]([C@@H](C)CC)C(=O)O[C@H](C(C)C)C(=O)N1C [EnnA, Enniatin A]
level of Hsp90 in PR complexes ([1]; protein complex analysis after PR reconstitution): reduces
accumulation of Hsp70-rich PR complexes ([1]; protein complex analysis, 1 μM 17-AAG): does not induce
cytotoxicity [2]: potent and concentration-dependent cytotoxicity
Hsp70 protein (AT3 cells): reduced
pAKT protein (AT3 cells): destabilizes
protein expression of Hsp40 (AT3 cells): reduces
IDO protein level (E0771 cells; E0771 (FIG. 3A), 0.5 μM EnnA): severely reduced
Hsp70 protein (E0771 cells; E0771, 0.5 μM EnnA): slightly increased
pAKT protein (E0771 cells; E0771, 0.5 μM EnnA): destabilizes
protein expression of Hsp40 (E0771 cells; E0771, 0.5 μM EnnA): reduces
PD-1 expression of infiltrating CD8+ lymphocytes ([3]; FACS): lower levels
number of CD4+Foxp3+ T regulatory cells (Tregs) in tumors ([3]; FACS): significantly reduced
number of MDSCs in tumors ([3]; FACS, CD11b+Gr-1+): significantly reduced
number of GR-1-CD11c+CD103+ lymphocytes ([3]; FACS, FIG. 5T): increase
tumor necrosis ([3]; H&E staining): heavily necrotic
Hsp90 client proteins in tumors ([3]; Western blot of tumors from treated mice): destabilized
infiltration of tumors by T lymphocytes ([3]; anti-CD45 immunohistochemistry): massive infiltration
infiltration of tumors with CD45+, CD8β+ T cells ([3]; immunofluorescent staining): higher infiltration
proportion of CD8β cells in spleenocytes ([3]; tumor bearing animals, FACS): increase
PD-L1 and IDO in vivo ([3]; tumors, Western blot and FACS): destabilizes
